Source: ChEMBL document CHEMBL1138961, “Highly selective and potent agonists of sphingosine-1-phosphate 1 (S1P1) receptor” (Bioorg Med Chem Lett, 2006)
Active and inactive are the calls of the source. No cut-off for these calls is given here.

Legend:
Homo sapiens [1] = species: Homo sapiens; assay: Selectivity for S1P1 receptor over S1P4 receptor
Homo sapiens [2] = species: Homo sapiens; assay: Selectivity for S1P1 receptor over S1P5 receptor
[3] = molecular target: T1, Sphingosine 1-phosphate receptor 1 (Homo sapiens, UniProt P21453); assay: Agonist activity at S1P1 receptor assessed as induction of [35S]GTP-gamma-S binding; type: functional
T1 sequence (P21453 whole entry): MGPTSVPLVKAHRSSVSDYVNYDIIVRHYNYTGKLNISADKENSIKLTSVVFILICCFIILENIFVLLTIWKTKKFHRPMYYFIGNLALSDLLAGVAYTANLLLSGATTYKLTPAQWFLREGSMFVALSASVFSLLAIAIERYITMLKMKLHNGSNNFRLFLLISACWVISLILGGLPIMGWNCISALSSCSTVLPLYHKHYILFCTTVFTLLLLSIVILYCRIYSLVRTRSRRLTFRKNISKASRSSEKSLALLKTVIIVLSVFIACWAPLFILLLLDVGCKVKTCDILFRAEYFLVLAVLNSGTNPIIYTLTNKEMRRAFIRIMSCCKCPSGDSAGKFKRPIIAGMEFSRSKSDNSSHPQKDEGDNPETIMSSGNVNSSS

Homo sapiens [4] = species: Homo sapiens; assay: Selectivity for S1P1 receptor over S1P2 receptor
[5] = molecular target: T2, Sphingosine 1-phosphate receptor 5 (Homo sapiens, UniProt Q9H228); assay: Agonist activity at S1P5 receptor assessed as induction of [35S]GTP-gamma-S binding; type: functional
T2 sequence (Q9H228 whole entry): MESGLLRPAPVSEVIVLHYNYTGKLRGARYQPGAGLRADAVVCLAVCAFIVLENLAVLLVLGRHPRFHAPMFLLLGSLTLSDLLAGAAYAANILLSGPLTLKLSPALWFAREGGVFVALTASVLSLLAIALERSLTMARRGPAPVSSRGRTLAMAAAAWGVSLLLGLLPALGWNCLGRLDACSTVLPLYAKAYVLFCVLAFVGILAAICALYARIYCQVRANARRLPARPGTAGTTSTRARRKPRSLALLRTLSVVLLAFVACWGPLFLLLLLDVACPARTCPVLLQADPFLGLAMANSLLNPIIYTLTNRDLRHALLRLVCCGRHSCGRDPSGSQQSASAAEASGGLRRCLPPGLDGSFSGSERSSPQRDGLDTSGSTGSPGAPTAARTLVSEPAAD

[6] = molecular target: T3, Sphingosine 1-phosphate receptor 3 (Homo sapiens, UniProt Q99500); assay: Agonist activity at S1P3 receptor assessed as induction of [35S]GTP-gamma-S binding; type: functional
T3 sequence (Q99500 whole entry): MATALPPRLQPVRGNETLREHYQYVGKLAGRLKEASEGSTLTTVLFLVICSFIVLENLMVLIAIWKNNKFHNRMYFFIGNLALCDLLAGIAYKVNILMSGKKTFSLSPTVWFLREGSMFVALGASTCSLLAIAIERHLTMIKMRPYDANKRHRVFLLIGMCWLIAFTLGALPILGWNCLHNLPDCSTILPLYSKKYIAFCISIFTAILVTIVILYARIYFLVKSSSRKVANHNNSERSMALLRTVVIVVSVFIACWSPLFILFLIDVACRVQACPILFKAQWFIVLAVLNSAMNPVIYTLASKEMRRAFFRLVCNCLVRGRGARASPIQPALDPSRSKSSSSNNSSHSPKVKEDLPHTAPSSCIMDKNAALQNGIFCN

[7] = molecular target: T3, Sphingosine 1-phosphate receptor 3; assay: Inhibition of S1P3 receptor at 10 uM
[8] = molecular target: T2, Sphingosine 1-phosphate receptor 5; assay: Inhibition of S1P5 receptor at 10 uM
[9] = Oral bioavailability in rat; type: ADME, organism-based; conditions: in vivo
Homo sapiens [10] = species: Homo sapiens; assay: Selectivity for S1P1 receptor over S1P3 receptor
[11] = Half life in rat; type: ADME, organism-based; conditions: in vivo
Mus musculus = assay: Lowering of lymphocytes in mouse at 0.3 mg/kg, po; type: functional, organism-based; set-up: dose 0.3 mg/kg
[12] = molecular target: T1, Sphingosine 1-phosphate receptor 1; assay: Inhibition of S1P1 receptor at 10 uM

| SMILES | Selectivity ratio (Homo sapiens [1]) | Selectivity ratio (Homo sapiens [2]) | EC50 [3] | Selectivity ratio (Homo sapiens [4]) | EC50 [5] | EC50 [6] | also measured |
| --- | --- | --- | --- | --- | --- | --- | --- |
| Cc1cc(CCC(=O)O)ccc1-c1nnc(-c2ccc(OCC#N)c(C#N)c2)s1 | > 1000 | 220 | 45 nM | > 1000 | – | – | – |
| Cc1cc(CCC(=O)O)ccc1-c1nnc(-c2ccc(OCC(=O)O)c(C#N)c2)s1 | > 1000 | 28 | 360 nM | > 1000 | – | – | – |
| Cc1cc(CCC(=O)O)ccc1-c1nc(C)c(-c2ccc(OC(C)C)c(C#N)c2)s1 | > 1000 | – | > 3600 nM | > 1000 | > 10000 nM | > 10000 nM | – |
| Cc1cc(CCC(=O)O)ccc1-c1coc(-c2cnc(OC(C)C)c(Cl)c2)n1 | > 1000 | – | 1000 nM | > 1000 | – | – | inhibition [7]: 8%; inhibition [8]: 0% |
| Cc1cc(CCC(=O)O)ccc1-c1ccc(-c2ccc(OC(C)C)c(C#N)c2)s1 | > 1000 | – | 0.93 nM | > 1000 | 220 nM | > 10000 nM | – |
| Cc1cc(CCC(=O)O)ccc1-c1nnc(-c2ccc(OCC(C)C)c(C#N)c2)s1 | > 1000 | 200 | 2.8 nM | > 1000 | – | – | – |
| Cc1cc(CCC(=O)O)ccc1-c1nnc(-c2ccc(OCC(F)F)c(C#N)c2)s1 | > 1000 | 230 | 1.1 nM | > 1000 | – | – | – |
| Cc1cc(CCC(=O)O)ccc1-c1nnc(-c2cnc(OC(C)C)c(Cl)c2)s1 | > 1000 | – | 2.1 nM | > 1000 | 1300 nM | – | inhibition [7]: 36% |
| Cc1cc(CCC(=O)O)ccc1-c1nnc(-c2ccc(OCCF)c(C#N)c2)s1 | > 1000 | > 100 | 9.5 nM | > 1000 | – | – | – |
| Cc1cc(CCC(=O)O)ccc1-c1noc(-c2cnc(OC(C)C)c(Cl)c2)n1 | > 1000 | – | 0.73 nM | > 1000 | 950 nM | 950 nM | – |
| Cc1cc(CCC(=O)O)ccc1-c1nnc(-c2ccc(OC(C)C)c(C#N)c2)o1 | > 1000 | – | 1.1 nM | > 1000 | 460 nM | > 10000 nM | – |
| Cc1cc(CCC(=O)O)ccc1-c1nnc(-c2ccc(-c3cccs3)c(C#N)c2)s1 | > 1000 | 110 | 1.9 nM | > 1000 | – | – | – |
| Cc1cc(CCC(=O)O)ccc1-c1nnc(-c2ccc(F)c(C#N)c2)s1 | > 1000 | 18 | 570 nM | > 1000 | – | – | – |
| Cc1cc(CCC(=O)O)ccc1-c1nnc(-c2ccc(OC3CCC3)c(C#N)c2)s1 | > 1000 | 170 | 0.79 nM | > 1000 | – | – | – |
| Cc1cc(CCC(=O)O)ccc1-c1cnc(-c2ccc(OC(C)C)c(C#N)c2)s1 | > 1000 | – | 14 nM | > 1000 | 200 nM | > 10000 nM | – |
| Cc1cc(CCC(=O)O)ccc1-c1nnc(-c2ccc(OC(C(F)(F)F)C(F)(F)F)c(C#N)c2)s1 | > 1000 | 2 | 38 nM | > 1000 | – | – | – |
| Cc1cc(CCC(=O)O)ccc1-c1nnc(-c2ccc(OCC3CC3)c(C#N)c2)s1 | > 1000 | 230 | 0.61 nM | > 1000 | – | – | – |
| Cc1cc(CCC(=O)O)ccc1-n1nnc(-c2ccc(OC(C)C)c(C#N)c2)n1 | > 1000 | – | 0.98 nM | > 1000 | 150 nM | > 10000 nM | – |
| Cc1cc(CCC(=O)O)ccc1-c1cc(-c2ccc(OC(C)C)c(C#N)c2)cs1 | > 1000 | – | 290 nM | > 1000 | 3200 nM | > 10000 nM | – |
| Cc1cc(CCC(=O)O)ccc1-c1nnc(-c2cccc(C#N)c2)s1 | > 1000 | – | > 1000 nM | > 1000 | – | – | – |
| CCCOc1ccc(-c2nnc(-c3ccc(CCC(=O)O)cc3C)s2)cc1C#N | > 1000 | 110 | 3.4 nM | > 1000 | – | – | – |
| Cc1cc(CCC(=O)O)ccc1-c1ccc(-c2ccc(OC(C)C)c(C#N)c2)o1 | > 1000 | – | > 10000 nM | > 1000 | > 10000 nM | > 10000 nM | – |

| SMILES | Selectivity ratio (Homo sapiens [1]) | Selectivity ratio (Homo sapiens [2]) | EC50 [3] | Selectivity ratio (Homo sapiens [4]) | EC50 [5] | EC50 [6] | also measured |
| --- | --- | --- | --- | --- | --- | --- | --- |
| Cc1cc(CCC(=O)O)ccc1-c1ccc(-c2ccc(OC(C)C)c(C#N)c2)n1C | > 1000 | – | > 10000 nM | > 1000 | > 10000 nM | > 10000 nM | – |
| COc1ccc(-c2nnc(-c3ccc(CCC(=O)O)cc3C)s2)cc1C#N | > 1000 | > 100 | 97 nM | > 1000 | – | – | – |
| Cc1cc(CCC(=O)O)ccc1-c1ncc(-c2ccc(OC(C)C)c(C#N)c2)s1 | > 1000 | > 600 | 0.18 nM | > 1000 | 120 nM | > 10000 nM | bioavailability [9]: 39%; Selectivity ratio (Homo sapiens [10]): > 10000; half-life [11]: < 1 h; Activity (Mus musculus): Active |
| Cc1cc(CCC(=O)O)ccc1-c1nnc(-c2ccc(OC(C)C)c(C#N)c2)s1 | > 1000 | 210 | 0.2 nM | > 1000 | – | – | – |
| Cc1cc(CCC(=O)O)ccc1-c1nnc(-c2ccc(OCC(F)(F)F)c(C#N)c2)s1 | > 1000 | 400 | 0.6 nM | > 1000 | – | – | – |
| Cc1cc(CCC(=O)O)ccc1-c1ncc(-c2ccc(OC(C)C)c(C#N)c2)o1 | > 1000 | – | 5.1 nM | > 1000 | > 10000 nM | > 10000 nM | – |
| Cc1cc(CCC(=O)O)ccc1-c1nnc(-c2ccc(OC(CF)CF)c(C#N)c2)s1 | > 1000 | 390 | 0.23 nM | > 1000 | – | – | – |
| CC(=O)Oc1ccc(-c2nnc(-c3ccc(CCC(=O)O)cc3C)s2)cc1C#N | > 1000 | 110 | 94 nM | > 1000 | – | – | – |
| Cc1cc(CCC(=O)O)ccc1-c1noc(-c2ccc(OC(C)C)c(Cl)c2)n1 | > 1000 | – | 0.15 nM | > 1000 | 73 nM | 940 nM | – |
| Cc1cc(CCC(=O)O)ccc1-c1nnc(-c2ccc(OC(C)C)c(C#N)c2)[nH]1 | – | – | 380 nM | – | > 10000 nM | > 10000 nM | – |
| Cc1cc(CCC(=O)O)ccc1-c1nnc(-c2ccc(OCCC(F)(F)F)c(C#N)c2)s1 | > 1000 | 30 | 7.7 nM | > 1000 | – | – | – |
| Cc1cc(CCC(=O)O)ccc1-c1nnc(-c2cnc(OC(C)C)c(Cl)c2)o1 | > 1000 | – | 19 nM | > 1000 | – | – | inhibition [7]: 82%; inhibition [8]: 44% |
| Cc1cc(CCC(=O)O)ccc1-c1nnn(-c2ccc(OC(C)C)c(C#N)c2)n1 | > 1000 | – | 1.6 nM | > 1000 | 43 nM | > 10000 nM | – |
| Cc1cc(CCC(=O)O)ccc1-c1nnc(-c2ccc(OC(C)C)c(C#N)c2)n1C | > 1000 | – | > 10000 nM | > 1000 | > 10000 nM | > 10000 nM | – |
| Cc1cc(CCC(=O)O)ccc1-c1csc(-c2ccc(OC(C)C)c(C#N)c2)c1 | > 1000 | – | 1200 nM | > 1000 | 3200 nM | > 10000 nM | – |
| Cc1cc(CCC(=O)O)ccc1-c1nnc(-c2ccc(CC(C)C)c(C#N)c2)s1 | > 1000 | 320 | 0.16 nM | > 1000 | – | – | – |
| Cc1cc(CCC(=O)O)ccc1-c1nc(-c2ccc(OC(C)C)c(C#N)c2)n[nH]1 | > 1000 | – | – | > 1000 | – | – | – |
| CCC(C)Oc1ccc(-c2nnc(-c3ccc(CCC(=O)O)cc3C)s2)cc1C#N (stereo not drawn) | > 1000 | 120 | 0.28 nM | > 1000 | – | – | – |
| Cc1cc(CCC(=O)O)ccc1-c1noc(-c2ccc(OC(C)C)c(C#N)c2)n1 | > 1000 | – | 0.1 nM | > 1000 | 13 nM | 110 nM | – |
| CCOc1ccc(-c2nnc(-c3ccc(CCC(=O)O)cc3C)s2)cc1C#N | > 1000 | 480 | 2.1 nM | > 1000 | – | – | – |
| Cc1cc(CCC(=O)O)ccc1-c1csc(-c2cnc(OC(C)C)c(Cl)c2)n1 | > 1000 | – | – | > 1000 | – | – | inhibition [12]: 30%; inhibition [7]: 0%; inhibition [8]: 6% |
